# Calls of active or inactive are those of the source.
# Experiments:
# Cytochrome P450 3A4 = Cytochrome P450 3A4 (Homo sapiens, UniProt P08684);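 also: CYP3A4 tested as one member of a cytochrome P450 panel screen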
# Cytochrome P450 2D6 = Cytochrome P450 2D6 (Homo sapiens, UniProt P10635);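 also: CYP2D6 member of a cytochrome P450 panel assay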
# Cytochrome P450 1A2 = target: T1, Cytochrome P450 1A2 (Homo sapiens, UniProt P05177);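 also: PubChem cytochrome P450 panel assay, CYP1A2 panel member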
# T1 sequence (P05177 whole entry): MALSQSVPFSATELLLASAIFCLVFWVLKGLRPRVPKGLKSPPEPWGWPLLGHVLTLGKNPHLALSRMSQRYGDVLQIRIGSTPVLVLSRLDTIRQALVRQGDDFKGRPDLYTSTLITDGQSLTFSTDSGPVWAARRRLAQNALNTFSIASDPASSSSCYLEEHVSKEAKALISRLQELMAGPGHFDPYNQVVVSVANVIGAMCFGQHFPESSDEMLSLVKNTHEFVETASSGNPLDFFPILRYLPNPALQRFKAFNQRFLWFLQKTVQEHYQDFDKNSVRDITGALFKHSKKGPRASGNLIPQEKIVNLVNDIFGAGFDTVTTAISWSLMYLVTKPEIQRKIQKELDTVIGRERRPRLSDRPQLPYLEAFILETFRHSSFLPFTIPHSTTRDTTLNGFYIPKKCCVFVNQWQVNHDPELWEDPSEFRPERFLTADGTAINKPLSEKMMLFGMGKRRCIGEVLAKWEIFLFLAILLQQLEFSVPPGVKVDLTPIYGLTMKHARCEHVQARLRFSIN
# [1] = growth suppression of beta-catenin-knockout colon cells, dose response, cell-based, HCT116, human colon tumor (AID 1045); assay type: functional;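 also: HCT116 colon tumor cells with beta catenin knocked out; cells exposed to compound for 60 hours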
# [2] = growth suppression of PTEN-null colon cells, dose response, cell-based, HCT116 PTEN knockout (AID 1047); assay type: functional;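 also: HCT116 colon tumor cells with PTEN knocked out; cells exposed to compound for 60 hours before readout; potency for loss of cell viability measured by luminescence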
# Cytochrome P450 2C9 = Cytochrome P450 2C9 (Homo sapiens, UniProt P11712)
# Sequence of Cytochrome P450 2C9 (P11712 whole entry): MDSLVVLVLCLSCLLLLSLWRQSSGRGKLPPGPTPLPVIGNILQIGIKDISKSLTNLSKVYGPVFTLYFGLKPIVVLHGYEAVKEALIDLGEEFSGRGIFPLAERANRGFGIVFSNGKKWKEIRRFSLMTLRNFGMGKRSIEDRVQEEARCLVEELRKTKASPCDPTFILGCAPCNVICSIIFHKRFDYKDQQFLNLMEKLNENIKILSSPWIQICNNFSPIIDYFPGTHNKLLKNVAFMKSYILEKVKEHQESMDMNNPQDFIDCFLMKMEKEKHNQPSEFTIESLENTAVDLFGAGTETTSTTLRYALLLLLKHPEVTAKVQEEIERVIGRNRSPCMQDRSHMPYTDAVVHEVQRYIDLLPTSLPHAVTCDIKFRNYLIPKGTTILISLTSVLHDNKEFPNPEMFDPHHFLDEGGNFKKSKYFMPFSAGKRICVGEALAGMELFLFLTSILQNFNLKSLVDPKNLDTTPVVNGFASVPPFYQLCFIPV
# [3] = C. albicans growth with fluconazole, confirmation, fluorescence, retest (AID 2467); assay type: functional, cell-based
# [4] = NIH-3T3 fibroblast cytotoxicity, dose response, cytotoxicity control, cell-based, fluorescence, Alamar Blue, secondary assay (AID 2327); assay type: functional;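 also: NIH-3T3 mouse fibroblasts cultured with fluconazole at 8 µg/mL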
# [5] = target: Luciferin 4-monooxygenase (Photinus pyralis, UniProt P08659); experiment: firefly luciferase enzyme inhibitors, dose response, biochemical, luminescence (AID 1891)
# Sequence of Luciferin 4-monooxygenase (P08659 whole entry): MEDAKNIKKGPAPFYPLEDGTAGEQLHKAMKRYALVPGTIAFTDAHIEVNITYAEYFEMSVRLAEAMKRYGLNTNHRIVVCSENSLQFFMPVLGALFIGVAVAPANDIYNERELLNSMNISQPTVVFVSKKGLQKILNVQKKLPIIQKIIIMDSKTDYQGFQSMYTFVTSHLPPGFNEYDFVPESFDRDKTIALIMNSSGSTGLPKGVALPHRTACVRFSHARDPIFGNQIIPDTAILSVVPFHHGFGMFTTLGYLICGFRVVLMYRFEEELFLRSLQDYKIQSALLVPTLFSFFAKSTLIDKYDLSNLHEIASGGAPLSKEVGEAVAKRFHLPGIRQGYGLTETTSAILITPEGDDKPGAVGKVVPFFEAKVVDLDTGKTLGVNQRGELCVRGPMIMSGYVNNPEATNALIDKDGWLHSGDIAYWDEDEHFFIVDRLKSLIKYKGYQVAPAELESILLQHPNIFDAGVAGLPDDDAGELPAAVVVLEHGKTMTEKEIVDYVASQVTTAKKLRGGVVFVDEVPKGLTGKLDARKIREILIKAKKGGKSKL
# [6] = Luminescence Cell-Based Dose Confirmation HTS to Identify Inhibitors of Platelet Dense Granule Release. [Related pubchem assays: 1663 (Primary HTS), 1678 (Summary of Project)]; assay type: functional
# cells = assay type: functional
# [7] = target: T2, Corticotropin-releasing factor receptor 2/Corticotropin-releasing factor-binding protein (Homo sapiens, UniProt P24387+Q13324); experiment: activators of CRF receptor 2 with binding protein – uHTS hits, confirmation (AID 602473); assay type: functional; settings: read-out: EC50_Mean
# T2 sequence (Q13324 whole entry): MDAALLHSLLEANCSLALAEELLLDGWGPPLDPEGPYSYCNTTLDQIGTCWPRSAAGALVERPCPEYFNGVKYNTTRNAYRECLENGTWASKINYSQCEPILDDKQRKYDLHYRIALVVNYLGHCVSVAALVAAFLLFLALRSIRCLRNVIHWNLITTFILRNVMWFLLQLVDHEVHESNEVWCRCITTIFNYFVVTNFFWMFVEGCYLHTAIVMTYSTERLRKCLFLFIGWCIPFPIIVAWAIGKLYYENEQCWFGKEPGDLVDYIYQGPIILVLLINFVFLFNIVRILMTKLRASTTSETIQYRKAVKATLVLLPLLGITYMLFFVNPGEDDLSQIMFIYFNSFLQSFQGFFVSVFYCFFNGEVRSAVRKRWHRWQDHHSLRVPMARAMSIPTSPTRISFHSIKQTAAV
# T2 sequence (P24387 whole entry): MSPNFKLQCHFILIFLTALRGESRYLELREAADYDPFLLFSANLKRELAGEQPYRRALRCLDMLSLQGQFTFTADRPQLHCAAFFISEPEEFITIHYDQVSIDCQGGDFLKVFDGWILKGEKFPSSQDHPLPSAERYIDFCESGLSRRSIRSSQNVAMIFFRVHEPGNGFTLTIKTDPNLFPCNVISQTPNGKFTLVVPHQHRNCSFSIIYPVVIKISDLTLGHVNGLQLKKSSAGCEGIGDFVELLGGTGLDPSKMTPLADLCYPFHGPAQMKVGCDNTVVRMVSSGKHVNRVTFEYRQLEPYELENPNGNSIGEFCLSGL
# Streptokinase A = target: T3, Streptokinase A (Streptococcus pyogenes serotype M1, UniProt P10520); experiment: S. pyogenes streptokinase expression inhibitors, potency, dose response, plasminogen activation absorbance, OD405 (AID 1914); assay type: functional, Streptococcus pyogenes M1 GAS;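 also: secreted streptokinase activity via plasminogen activation per viability signal from cell pellet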
# T3 sequence (P10520 whole entry): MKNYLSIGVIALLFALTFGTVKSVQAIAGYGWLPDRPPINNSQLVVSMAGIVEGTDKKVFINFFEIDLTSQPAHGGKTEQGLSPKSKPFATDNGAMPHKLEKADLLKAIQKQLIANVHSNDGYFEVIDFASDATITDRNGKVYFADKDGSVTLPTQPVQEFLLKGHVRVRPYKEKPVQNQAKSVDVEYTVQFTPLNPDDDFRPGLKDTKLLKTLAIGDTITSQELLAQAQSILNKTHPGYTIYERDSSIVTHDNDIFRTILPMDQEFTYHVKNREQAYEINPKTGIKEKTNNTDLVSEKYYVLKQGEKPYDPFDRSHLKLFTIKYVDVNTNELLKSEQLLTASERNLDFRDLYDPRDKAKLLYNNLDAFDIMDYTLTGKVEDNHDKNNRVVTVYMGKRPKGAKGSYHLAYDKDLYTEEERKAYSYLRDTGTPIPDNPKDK
# [8] = system: Streptococcus sp. 'group A'; experiment: growth inhibition of control SK(-) GAS strain, dose response, counter-screen for streptokinase expression inhibitor project, luminescence, kanamycin, BacTiterGlo, confirmation (AID 1900); assay type: functional, organism-based
# Streptococcus = experiment: Group A Streptococcus viability loss, dose response, counter-screen for streptokinase expression inhibitor project, luminescence, BacTiterGlo (AID 1915); assay type: functional, organism-based;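 also: potency for reduction of bacterial viability or growth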
# [9] = target: T4, Calpain-2 catalytic subunit (Sus scrofa, UniProt P43367); experiment: pig calpain II inhibitor potency, dose response, biochemical, fluorogenic peptide substrate (AID 1420); assay type: functional
# T4 sequence (P43367 whole entry): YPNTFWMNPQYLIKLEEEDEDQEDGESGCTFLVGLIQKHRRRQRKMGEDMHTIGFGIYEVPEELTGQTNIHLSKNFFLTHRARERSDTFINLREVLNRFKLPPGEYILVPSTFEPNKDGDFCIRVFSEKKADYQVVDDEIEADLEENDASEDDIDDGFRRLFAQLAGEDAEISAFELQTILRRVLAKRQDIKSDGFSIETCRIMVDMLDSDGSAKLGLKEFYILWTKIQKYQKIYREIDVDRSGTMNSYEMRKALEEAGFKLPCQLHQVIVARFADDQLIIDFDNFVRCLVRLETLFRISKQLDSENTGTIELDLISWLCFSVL
# [10] = control 3'UTR Renilla luciferase suppression, dose response, counter-screen for Shn3 inhibitor project, cell-based, Clone20-Shn3RL, cherry-picked (AID 624133); assay type: functional
# [11] = Shn3 3'UTR reporter inhibitors, dose response, cell-based, Clone20 osteoblasts, firefly luciferase, cherry-picked (AID 624132); assay type: functional;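 also: firefly luciferase luminescence from reporter carrying the Shn3 3'UTR in osteoblasts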
# Sequence of Cytochrome P450 3A4 (P08684 whole entry): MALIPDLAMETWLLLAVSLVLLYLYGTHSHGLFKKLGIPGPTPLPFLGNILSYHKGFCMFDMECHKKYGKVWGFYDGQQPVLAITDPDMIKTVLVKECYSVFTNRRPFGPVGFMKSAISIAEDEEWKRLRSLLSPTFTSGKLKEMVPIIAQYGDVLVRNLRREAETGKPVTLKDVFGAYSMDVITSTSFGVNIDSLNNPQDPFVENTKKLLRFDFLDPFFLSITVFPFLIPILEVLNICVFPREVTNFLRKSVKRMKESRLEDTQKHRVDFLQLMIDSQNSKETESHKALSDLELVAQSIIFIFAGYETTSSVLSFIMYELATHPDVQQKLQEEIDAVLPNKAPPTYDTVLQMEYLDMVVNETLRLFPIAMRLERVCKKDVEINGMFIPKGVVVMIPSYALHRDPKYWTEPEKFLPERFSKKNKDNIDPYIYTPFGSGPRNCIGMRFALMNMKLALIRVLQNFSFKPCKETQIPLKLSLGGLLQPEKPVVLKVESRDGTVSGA
# Sequence of Cytochrome P450 2D6 (P10635 whole entry): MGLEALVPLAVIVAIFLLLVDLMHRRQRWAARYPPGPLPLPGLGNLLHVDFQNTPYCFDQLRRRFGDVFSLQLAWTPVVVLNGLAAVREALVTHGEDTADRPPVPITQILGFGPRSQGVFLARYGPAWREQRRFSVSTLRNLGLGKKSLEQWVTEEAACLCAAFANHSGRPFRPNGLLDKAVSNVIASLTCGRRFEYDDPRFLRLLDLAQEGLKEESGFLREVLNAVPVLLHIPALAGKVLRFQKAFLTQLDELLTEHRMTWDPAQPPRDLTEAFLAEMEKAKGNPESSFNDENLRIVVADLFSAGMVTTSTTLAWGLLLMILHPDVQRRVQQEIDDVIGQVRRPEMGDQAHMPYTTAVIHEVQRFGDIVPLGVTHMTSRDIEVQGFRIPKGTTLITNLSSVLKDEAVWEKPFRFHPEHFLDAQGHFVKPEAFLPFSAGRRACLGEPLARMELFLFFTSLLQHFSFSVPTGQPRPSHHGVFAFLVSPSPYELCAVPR
smiles,measurement,setting,value
CC(C)Oc1cccnc1N(C)C1CCN(Cc2ccccc2)CC1,AC50,Cytochrome P450 3A4,15.8 µM (inconclusive)
O=c1c(-c2ccc(F)cc2)nc2cnc(N3CCOCC3)nc2n1Cc1ccc(F)cc1,AC50,Cytochrome P450 2D6,39.8 µM (inconclusive)
same,AC50,Cytochrome P450 1A2,20 µM (inconclusive)
NS(=O)(=O)c1ccc(/N=N\c2nc3c(O)nc(O)nc3[nH]2)cc1,AC50,Cytochrome P450 3A4,0.631 µM (inconclusive)
N#CCCn1c(=O)c(-c2ccc(Cl)cc2)nc2cnc(N3CCNCC3)nc21,AC50,Cytochrome P450 3A4,25.1 µM (inconclusive)
O=C(Nc1cccc(C(F)(F)F)c1)N(Cc1ccc(Cl)cc1)CC(O)C(F)(F)F (stereo not drawn),EC50,[1],23.8 µM (active)
same,EC50,[2],19.6 µM (active)
same,AC50,Cytochrome P450 3A4,22.4 µM (inconclusive)
O=C(Nc1cccc(Br)c1)/C(=C\c1cccnc1)NC(=O)c1ccco1,AC50,Cytochrome P450 2C9,39.8 µM (inconclusive)
same,AC50,Cytochrome P450 1A2,31.6 µM (inconclusive)
O=C(NCc1ccc(Cl)cc1)c1n[nH]c([N+](=O)[O-])c1Cl,EC50,[3],0.123 µM (active)
same,EC50,[4],> 160 µM (inactive)
Cc1nc2ncnn2c(C)c1CCC(=O)NCCC1=CCCCC1,AC50,Cytochrome P450 2C9,14.1 µM (inconclusive)
same,AC50,Cytochrome P450 3A4,15.8 µM (inconclusive)
COc1ccc(CC(=O)Nc2ccc(-c3cn4ccccc4n3)cc2)cc1OC,EC50,[5],> 112 µM (not active)
same,EC50,[6],> 112 µM (not active)
COc1ccc2cc(C(=O)C3CCCN(Cc4ccccn4)C3)ccc2c1 (stereo not drawn),IC50,cells,5.03 µM (active)
O=C(CSc1nnc(SCc2ccc(F)cc2)s1)Nc1ccc(C(=O)O)cc1,EC50,[5],> 112 µM (not active)
same,EC50,[6],39.4 µM (active)
CC(C)OC(=O)c1c(NS(=O)(=O)c2ccccc2)sc2c1CCCC2,EC50,[7],14 µM (active)
same,EC50,Streptokinase A,> 150 µM (not active)
same,EC50,[8],3.69 µM (active)
same,EC50,Streptococcus,7.93 µM (active)
Cc1cccc(Oc2ccc(NC(=O)c3ccccc3C(=O)O)cc2)c1C,EC50,[7],8.97 µM (active)
CC(C)N1CCC(=NNC(=O)c2ccc(Br)o2)CC1,AC50,Cytochrome P450 2D6,10 µM (inconclusive)
same,AC50,Cytochrome P450 1A2,17.8 µM (inconclusive)
COc1ccc(OC)c(NC(=O)CC(Cc2ccccc2OC)C(=O)O)c1 (stereo not drawn),AC50,Cytochrome P450 1A2,0.0316 µM (inconclusive)
CC(C)NC(=S)NC(=O)c1ccc(-c2ccccc2)cc1,EC50,[7],> 53 µM (inactive)
CC1(C)CO[C@H](CC(=O)O)CN1,AC50,Cytochrome P450 2C9,39.8 µM (inconclusive)
same,AC50,Cytochrome P450 1A2,31.6 µM (inconclusive)
Cc1cccc(NC(=O)CNC(=O)COC(=O)CCS(=O)(=O)c2ccccc2)c1C,EC50,[5],> 112 µM (not active)
same,EC50,[6],> 112 µM (not active)
COc1ccc(C(=O)N2CCC3(CCCN(c4ncccn4)C3)CC2)cc1,AC50,Cytochrome P450 2D6,31.6 µM (inconclusive)
same,AC50,Cytochrome P450 3A4,39.8 µM (inconclusive)
same,AC50,Cytochrome P450 1A2,20 µM (inconclusive)
Cn1c(=O)c2[nH]c(SCCN3CCOCC3)nc2n(C)c1=S,AC50,Cytochrome P450 2C9,6.31 µM (inconclusive)
same,AC50,Cytochrome P450 3A4,3.16 µM (inconclusive)
same,AC50,Cytochrome P450 1A2,0.631 µM (inconclusive)
Cc1cc(C)c(C)c(OCC(O)CN2CCN(c3ccccn3)CC2)c1 (stereo not drawn),EC50,[5],> 112 µM (not active)
same,EC50,[6],> 112 µM (not active)
Cc1cccc(Cc2cnc(NC(=O)C3=NCCN3)s2)c1,IC50,cells,4.6 µM (active)
COc1cccc(C2C3=C(CC(C)(C)CC3=O)OC(N)=C2[N+](=O)[O-])c1 (stereo not drawn),AC50,Cytochrome P450 2C9,12.6 µM (inconclusive)
same,AC50,Cytochrome P450 3A4,15.8 µM (inconclusive)
O=C(SCc1cccc2ccccc12)c1ccc(Cl)cc1,AC50,Cytochrome P450 1A2,0.794 µM (inconclusive)
COCc1c(C(N)=O)nnn1-c1nonc1N,AC50,Cytochrome P450 1A2,25.1 µM (inconclusive)
O=[N+]([O-])c1cc(C(F)(F)F)ccc1NCCNC(=S)Nc1ccc(Cl)cc1,IC50,[9],7.92 µM (not active)
same,EC50,Streptokinase A,> 150 µM (not active)
O=C(CN1CCN(c2ccccc2)CC1)N1N=CCC1c1ccccc1 (stereo not drawn),EC50,[5],> 112 µM (not active)
same,EC50,[6],> 112 µM (not active)
COc1cc2c(cc1OC)CN(CCC(=O)c1ccc(Br)cc1)CC2,IC50,cells,16.5 µM (active)
CC1(C)S[C@@H]2[C@H](C(=O)O)N=C(Cc3ccccc3)N2[C@H]1C(=O)O,AC50,Cytochrome P450 1A2,6.31 µM (inconclusive)
O=C(NCC1(N2CCCCC2)CCCCC1)c1ccc(NS(=O)(=O)c2ccc(F)cc2)cc1,EC50,[5],> 112 µM (not active)
same,EC50,[6],> 112 µM (not active)
Cc1cc(-n2ccc(=O)[nH]c2=O)nc(-c2ccccc2)n1,EC50,[5],> 112 µM (not active)
same,EC50,[6],15.4 µM (active)
O=c1c(-c2ccccc2)nc2cnc(N3CCOCC3)nc2n1Cc1cccs1,AC50,Cytochrome P450 2C9,20 µM (inconclusive)
same,AC50,Cytochrome P450 1A2,2.51 µM (inconclusive)
CCOC(=O)COc1ccc2c(=O)c(-c3ccccc3)coc2c1,IC50,cells,< 0.1 µM (active)
COc1ccc(Oc2nc(C)cc(C)c2S(=O)(=O)c2ccc(C)cc2)cc1,AC50,Cytochrome P450 3A4,1.12 µM (inconclusive)
O=C(Nc1ccccc1)N1CC[C@@]2(CCCN(C(=O)c3cccc(F)c3)C2)C1,AC50,Cytochrome P450 3A4,25.1 µM (inconclusive)
COc1ccc(-c2nnc(-c3ccccc3)o2)cc1OC,EC50,[5],> 112 µM (not active)
same,EC50,[6],72.5 µM (active)
Cc1noc(NS(=O)(=O)c2ccc(NC(=O)c3ccc(Br)o3)cc2)c1C,AC50,Cytochrome P450 2C9,14.1 µM (inconclusive)
same,AC50,Cytochrome P450 3A4,39.8 µM (inconclusive)
Cc1c(OCC(=O)N2CCN(c3ccccc3)CC2)ccc2c3c(c(=O)oc12)CCCC3,EC50,[5],> 112 µM (not active)
same,EC50,[6],> 112 µM (not active)
Cc1ccc(CNC(=O)c2cc(-c3ccccc3C)nn2CC2CC(c3cccnc3)=NO2)cc1 (stereo not drawn),AC50,[10],29 µM (active)
same,AC50,[11],> 70 µM (inactive)
COc1ccccc1CNCc1cccs1,AC50,Cytochrome P450 3A4,17.8 µM (inconclusive)
COc1cc(OC)cc(C(=O)N/N=C/c2ccc(OC)c(COc3ccc(F)cc3)c2)c1,EC50,[7],> 53 µM (inactive)
CN(C)c1ccc(/C=N/NC(=O)c2ccnn2C)cc1,EC50,[5],6.24 µM (active)
same,EC50,[6],1.32 µM (active)
N[C@H](C(=O)O)c1cccc(O)c1,AC50,Cytochrome P450 1A2,39.8 µM (inconclusive)

# — ChEMBL document CHEMBL1201862, “PubChem BioAssay data set” (2004)
